#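 Following 48 hours of exposure in 96-well plates, responses at five concentrations were used to interpolate endpoints linearly. GI50: concentration for 50% inhibition of growth.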 The source made the active and inactive calls. Cut-off read from the data, not from the text of the source: active = GI50 up to about 1.1 µM and inactive = higher.
# What was measured:
# Assay in all cases: NCI tumour cell line growth inhibition, 48 h
# ACHN = tested on: ACHN
# SNB-75 = tested on: SNB-75
# UACC-257 = tested on: UACC-257
# SNB-19 = tested on: SNB-19
# UO-31 = tested on: UO-31
# HCC 2998 = tested on: HCC 2998
# MOLT-4 = tested on: MOLT-4
# HCT-116 = tested on: HCT-116
# DU-145 = tested on: DU-145
# IGROV-1 = tested on: IGROV-1
# MDA-MB-435 = tested on: MDA-MB-435
# OVCAR-4 = tested on: OVCAR-4
# M14 = tested on: M14
# PC-3 = tested on: PC-3
# Malme-3M = tested on: Malme-3M
# LOX IMVI = tested on: LOX IMVI
# SK-MEL-2 = tested on: SK-MEL-2
# SW-620 = tested on: SW-620
# SF-295 = tested on: SF-295
# CCRF-CEM = tested on: CCRF-CEM
# MDA-N = tested on: MDA-N
# HT-29 = tested on: HT-29
# BT-549 = tested on: BT-549
# SK-MEL-28 = tested on: SK-MEL-28
# MCF7 = tested on: MCF7
# HL-60 = tested on: HL-60
# OVCAR-3 = tested on: OVCAR-3
# 786-0 = tested on: 786-0
# SF-268 = tested on: SF-268
# U-251 = tested on: U-251
# SF-539 = tested on: SF-539
# TK-10 = tested on: TK-10
# A549 = tested on: A549
# T47D = tested on: T47D
# KM12 = tested on: KM12
# CAKI-1 = tested on: CAKI-1
# NCI-H23 = tested on: NCI-H23
# NCI/ADR-RES = tested on: NCI/ADR-RES
# RPMI-8226 = tested on: RPMI-8226
# OVCAR-5 = tested on: OVCAR-5
# NCI-H226 = tested on: NCI-H226
# SK-MEL-5 = tested on: SK-MEL-5
# EKVX = tested on: EKVX
# SN12C = tested on: SN12C
# OVCAR-8 = tested on: OVCAR-8
# HCT-15 = tested on: HCT-15
# Hs-578T = tested on: Hs-578T
# HOP-92 = tested on: HOP-92
# SR = tested on: SR
# RXF 393 = tested on: RXF 393
# NCI-H522 = tested on: NCI-H522
# SK-OV-3 = tested on: SK-OV-3
# MDA-MB-231 = tested on: MDA-MB-231
# UACC-62 = tested on: UACC-62
# COLO 205 = tested on: COLO 205
# HOP-62 = tested on: HOP-62
# K562 = tested on: K562
# A498 = tested on: A498
# NCI-H460 = tested on: NCI-H460
smiles,measurement,setting,value
O=c1[nH]c2nc3ccccc3c(=O)n2/c1=C/c1ccc(O)cc1,GI50,ACHN,56.1 µM (inactive)
same,GI50,SNB-75,23.8 µM (inactive)
same,GI50,UACC-257,56.8 µM (inactive)
same,GI50,SNB-19,21 µM (inactive)
same,GI50,UO-31,53.7 µM (inactive)
same,GI50,HCC 2998,22.2 µM (inactive)
same,GI50,MOLT-4,31.7 µM (inactive)
same,GI50,HCT-116,36.8 µM (inactive)
same,GI50,DU-145,30.8 µM (inactive)
same,GI50,IGROV-1,39.2 µM (inactive)
same,GI50,MDA-MB-435,25.5 µM (inactive)
same,GI50,OVCAR-4,> 100 µM (inactive)
same,GI50,M14,36.8 µM (inactive)
same,GI50,PC-3,45.3 µM (inactive)
same,GI50,Malme-3M,39.1 µM (inactive)
same,GI50,LOX IMVI,35.6 µM (inactive)
same,GI50,SK-MEL-2,75.3 µM (inactive)
same,GI50,SW-620,22.6 µM (inactive)
same,GI50,SF-295,46.9 µM (inactive)
same,GI50,CCRF-CEM,20.8 µM (inactive)
same,GI50,MDA-N,32.3 µM (inactive)
same,GI50,HT-29,24 µM (inactive)
same,GI50,BT-549,32.1 µM (inactive)
same,GI50,SK-MEL-28,28.3 µM (inactive)
same,GI50,MCF7,31 µM (inactive)
same,GI50,HL-60,26 µM (inactive)
same,GI50,OVCAR-3,27 µM (inactive)
same,GI50,786-0,34.8 µM (inactive)
same,GI50,SF-268,25.4 µM (inactive)
same,GI50,U-251,26.2 µM (inactive)
same,GI50,SF-539,21.3 µM (inactive)
same,GI50,TK-10,53 µM (inactive)
same,GI50,A549,40.6 µM (inactive)
same,GI50,T47D,42.2 µM (inactive)
same,GI50,KM12,29.6 µM (inactive)
same,GI50,CAKI-1,43.3 µM (inactive)
same,GI50,NCI-H23,49 µM (inactive)
same,GI50,NCI/ADR-RES,41.7 µM (inactive)
same,GI50,RPMI-8226,16.9 µM (inactive)
same,GI50,OVCAR-5,> 100 µM (inactive)
same,GI50,NCI-H226,38.7 µM (inactive)
same,GI50,SK-MEL-5,52.7 µM (inactive)
same,GI50,EKVX,54.3 µM (inactive)
same,GI50,SN12C,30.6 µM (inactive)
same,GI50,OVCAR-8,22 µM (inactive)
same,GI50,HCT-15,30.9 µM
same,GI50,Hs-578T,18.6 µM (inactive)
same,GI50,HOP-92,49.5 µM (inactive)
same,GI50,SR,16.9 µM (inactive)
same,GI50,RXF 393,40.2 µM (inactive)
same,GI50,NCI-H522,23.2 µM (inactive)
same,GI50,SK-OV-3,> 100 µM (inactive)
same,GI50,MDA-MB-231,60.3 µM (inactive)
same,GI50,UACC-62,27 µM (inactive)
same,GI50,COLO 205,43.9 µM (inactive)
same,GI50,HOP-62,64 µM (inactive)
O=C1C[C@H](c2ccccc2)C2(C(=O)c3ccccc3C2=O)[C@@H](c2ccccc2)C1,GI50,SNB-75,28.4 µM (inactive)
same,GI50,SNB-19,23.9 µM (inactive)
same,GI50,UO-31,33.3 µM (inactive)
same,GI50,HCC 2998,23.3 µM (inactive)
same,GI50,MOLT-4,8.87 µM (inactive)
same,GI50,DU-145,48.6 µM (inactive)
same,GI50,IGROV-1,16.3 µM (inactive)
same,GI50,MDA-MB-435,> 10 µM (inactive)
same,GI50,OVCAR-4,14.4 µM (inactive)
same,GI50,M14,6.24 µM (inactive)
same,GI50,PC-3,10.8 µM (inactive)
same,GI50,Malme-3M,36.7 µM (inactive)
same,GI50,SK-MEL-2,12.8 µM (inactive)
same,GI50,SF-295,25.6 µM (inactive)
same,GI50,CCRF-CEM,9.55 µM (inactive)
same,GI50,MDA-N,16.2 µM (inactive)
same,GI50,HT-29,26.4 µM (inactive)
same,GI50,BT-549,19.6 µM (inactive)
same,GI50,SK-MEL-28,19 µM (inactive)
same,GI50,MCF7,37.2 µM (inactive)
same,GI50,HL-60,73.1 µM (inactive)
same,GI50,OVCAR-3,26.9 µM (inactive)
same,GI50,K562,9.86 µM (inactive)
same,GI50,U-251,31.5 µM (inactive)
same,GI50,A498,7.64 µM (inactive)
same,GI50,T47D,43.1 µM (inactive)
same,GI50,KM12,> 10 µM (inactive)
same,GI50,CAKI-1,7.59 µM (inactive)
same,GI50,NCI-H23,32.5 µM (inactive)
same,GI50,NCI/ADR-RES,23.2 µM (inactive)
same,GI50,RPMI-8226,> 100 µM (inactive)
same,GI50,OVCAR-5,42.2 µM (inactive)
same,GI50,NCI-H226,24.9 µM (inactive)
same,GI50,SK-MEL-5,16.9 µM (inactive)
same,GI50,SN12C,24.2 µM (inactive)
same,GI50,OVCAR-8,35.6 µM (inactive)
same,GI50,HCT-15,25.3 µM
same,GI50,Hs-578T,17.1 µM (inactive)
same,GI50,HOP-92,13.6 µM (inactive)
same,GI50,SR,92.7 µM (inactive)
same,GI50,RXF 393,6.04 µM (inactive)
same,GI50,NCI-H522,30.2 µM (inactive)
same,GI50,NCI-H460,25.8 µM (inactive)
same,GI50,SK-OV-3,21.2 µM (inactive)
same,GI50,MDA-MB-231,20.7 µM (inactive)
same,GI50,UACC-62,11.8 µM (inactive)
same,GI50,COLO 205,18.4 µM (inactive)
same,GI50,HOP-62,38.5 µM (inactive)
CN1C(=O)C23CCCC2CC1(c1ccccc1)S3 (centres undefined),GI50,ACHN,> 100 µM (inactive)
same,GI50,UACC-257,23 µM (inactive)
same,GI50,SNB-19,> 100 µM (inactive)
same,GI50,UO-31,> 100 µM (inactive)
same,GI50,MOLT-4,> 100 µM (inactive)
same,GI50,HCT-116,> 100 µM (inactive)
same,GI50,DU-145,> 100 µM (inactive)
same,GI50,IGROV-1,> 100 µM (inactive)
same,GI50,MDA-MB-435,> 100 µM (inactive)
same,GI50,OVCAR-4,56.1 µM (inactive)
same,GI50,M14,> 100 µM (inactive)
same,GI50,PC-3,45.2 µM (inactive)
same,GI50,Malme-3M,> 100 µM (inactive)
same,GI50,LOX IMVI,> 100 µM (inactive)
same,GI50,SK-MEL-2,49.7 µM (inactive)
same,GI50,SW-620,> 100 µM (inactive)
same,GI50,SF-295,> 100 µM (inactive)
same,GI50,MDA-N,> 100 µM (inactive)
same,GI50,HT-29,> 100 µM (inactive)
same,GI50,BT-549,95.5 µM (inactive)
same,GI50,SK-MEL-28,> 100 µM (inactive)
same,GI50,MCF7,> 100 µM (inactive)
same,GI50,HL-60,60.7 µM (inactive)
same,GI50,OVCAR-3,> 100 µM (inactive)
same,GI50,K562,> 100 µM (inactive)
same,GI50,786-0,> 100 µM (inactive)
same,GI50,SF-268,> 100 µM (inactive)
same,GI50,U-251,> 100 µM (inactive)
same,GI50,SF-539,> 100 µM (inactive)
same,GI50,A498,> 100 µM (inactive)
same,GI50,TK-10,> 100 µM (inactive)
same,GI50,A549,> 100 µM (inactive)
same,GI50,T47D,54.6 µM (inactive)
same,GI50,KM12,> 100 µM (inactive)
same,GI50,CAKI-1,> 100 µM (inactive)
same,GI50,NCI-H23,> 100 µM (inactive)
same,GI50,NCI/ADR-RES,64.9 µM (inactive)
same,GI50,RPMI-8226,> 100 µM (inactive)
same,GI50,OVCAR-5,> 100 µM (inactive)
same,GI50,NCI-H226,> 100 µM (inactive)
same,GI50,SK-MEL-5,> 100 µM (inactive)
same,GI50,EKVX,> 100 µM (inactive)
same,GI50,SN12C,> 100 µM (inactive)
same,GI50,OVCAR-8,> 100 µM (inactive)
same,GI50,HCT-15,> 100 µM
same,GI50,Hs-578T,78.9 µM (inactive)
same,GI50,HOP-92,41 µM (inactive)
same,GI50,SR,> 100 µM (inactive)
same,GI50,RXF 393,> 100 µM (inactive)
same,GI50,NCI-H522,91.2 µM (inactive)
same,GI50,SK-OV-3,> 100 µM (inactive)
same,GI50,MDA-MB-231,90.4 µM (inactive)
same,GI50,UACC-62,> 100 µM (inactive)
same,GI50,COLO 205,> 100 µM (inactive)
same,GI50,HOP-62,> 100 µM (inactive)
